Assay results published in patent US20130096321A1, “CRYSTALLINE ROTIGOTINE BASE AND PREPARATION PROCESS THEREFOR” (CHEMAGIS LTD., priority 2007, published 2013).

Experiment: Thermogravimetric analysis (TGA) of rotigotine base crystalline Form I
Type: physicochemical
Conditions: platinum baskets, heating rate 5° C./minute, FIG. 4
Protocol: Rotigotine base crystalline form I produces a TGA curve as depicted in FIG. 4. […] The TGA measurement was performed using a TA instruments Q500 Thermal analyzer with Universal Software (version 3.88). Samples were analyzed inside platinum baskets at heating rate of 5° C./minute.

CCCN(CCc1cccs1)[C@H]1CCc2c(O)cccc2C1 [crystalline rotigotine base Form I, (S)-(−)-5-hydroxy-2-(N-n-propyl-N-2-thienylethyl)-aminotetralin]
decomposition on heating (from TGA curve): does not decompose on heating | thermal stability (from TGA curve): thermally stable
